One test concerns the target human α-thrombin (Homo sapiens, UniProt P00734). The test is described as follows: In vitro inhibition of purified human thrombin (hydrolysis of Bz-Phe-Val-Arg-pNa). It is filed as biochemical. The note with it: inhibitor at 6 μM, [thrombin]=36 nM, [Bz-Phe-Val-Arg-pNa]=66 μM, pH 7.5, 37° C. The method, then:
The ability of the compounds of the present invention to act as inhibitors of thrombin, factor Xa and plasmin catalytic activity was assessed by determining the concentration which inhibited enzyme activity by 50% using purified human enzymes. The concentration of added inhibitor that caused a 50% decrease in the initial rate of hydrolysis was defined as the IC50 value.
All assays are based on the ability of the test compound to inhibit the hydrolysis of a peptide p-nitroanilide substrate. In a typical experiment, appropriate substrate is prepared in DMSO, and diluted into an assay buffer consisting of 50mM HEPES and 130 mM NaCl at a pH of 7.5. The final concentration for each of the substrates is listed below. All substrate concentrations are at least 10 fold lower than Km to insure inhibition is competitive. Test compounds are prepared as 1 mg/ml solutions in DMSO, and three additional 10-fold dilutions in DMSO are prepared. Enzyme solutions are prepared at the concentrations listed below in assay buffer.
(§1) In a typical IC50 determination, into each well of a 96 well plate is pipetted 280 uL of substrate solution, 10 μL of inhibitor solution, and the plate is allowed to thermally equilibrate at 37° C. in a Molecular Devices Plate Reader for at least 10 minutes. Reactions are initiated by the addition of a 20 μL aliquot of enzyme, and the absorbance increase at 405 nm is recorded for 15 minutes. Data corresponding to less than 10% of the total substrate hydrolysis is used in the calculations. The ratio of the velocity (rate of the change in absorbance as a function of time) for a sample containing no inhibitor is divided by the velocity of a sample containing inhibitor, and is plotted as a function of inhibitor concentration. The inverse of the slope is the concentration of inhibitor which produces a 50% decrease in activity of the enzyme. This concentration is referred to as the IC50.
Thrombin activity was assessed as the ability to hydrolyse the substrate N-benzoyl-Phe-Val-Arg-p-nitroanilide (Bz-Phe-Val-Arg-pNa), and was obtained from Sigma Chemical Company (St. Louis, Mo.). Substrate solutions were prepared at a concentration of 60 μM (60 μM<<Km =1.2 mM) in assay buffer. Final DMSO concentration was 0.3%. […] Final reagent concentrations were: [thrombin]=36 nM, [Bz-Phe-Val-Arg-pNa]=66 μM, [inhibitor]=60 to 0.06 μM.

Test [1] addresses T1, Factor Xa (Homo sapiens, UniProt P00742).
T1 construct: purchased Enzyme Research Laboratories, Inc
The experiment in a line: In vitro inhibition of purified human factor Xa (hydrolysis of Bz-Ile-Glu-Gly-Arg-pNa). It is filed as biochemical. The note with it: purified human enzyme, [Factor Xa]=10 nM, [Bz-Ile-Glu-Gly-Arg-pNa]=26 μM, pH 7.5, 37° C. The method, then: The ability of the compounds of the present invention to act as inhibitors of thrombin, factor Xa and plasmin catalytic activity was assessed by determining the concentration which inhibited enzyme activity by 50% using purified human enzymes.
All assays are based on the ability of the test compound to inhibit the hydrolysis of a peptide p-nitroanilide substrate. In a typical experiment, appropriate substrate is prepared in DMSO, and diluted into an assay buffer consisting of 50mM HEPES and 130 mM NaCl at a pH of 7.5. The final concentration for each of the substrates is listed below. […] Test compounds are prepared as 1 mg/ml solutions in DMSO, and three additional 10-fold dilutions in DMSO are prepared. Enzyme solutions are prepared at the concentrations listed below in assay buffer.
as §1, with “Reactions” for “In a typical IC50 determination, into each well of a 96 well plate is pipetted 280 uL of substrate solution, 10 μL of inhibitor solution, and the plate is allowed to thermally equilibrate at 37° C. in a Molecular Devices Plate Reader for at least 10 minutes. Reactions”
Factor Xa activity was assessed as the ability to hydrolyse the substrate Bz-Ile-Glu-Gly-Arg-pNa, and was obtained from Sigma. […] Final DMSO concentration was 0.3%.

The conditions of test [2]: given as adjuncts to thrombolysis; cited from earlier work.
Another test relates to smooth muscle cell. The note with it: U.S. Pat. No. 5,385,885; cited from earlier work.
For a further test, the system named is experimental restenosis. To be noted: in vivo; cited from earlier work.
Test [3] deals with factor Xa. The note with it: cited from earlier work.

T1 sequence (P00742 235-488 limits assumed): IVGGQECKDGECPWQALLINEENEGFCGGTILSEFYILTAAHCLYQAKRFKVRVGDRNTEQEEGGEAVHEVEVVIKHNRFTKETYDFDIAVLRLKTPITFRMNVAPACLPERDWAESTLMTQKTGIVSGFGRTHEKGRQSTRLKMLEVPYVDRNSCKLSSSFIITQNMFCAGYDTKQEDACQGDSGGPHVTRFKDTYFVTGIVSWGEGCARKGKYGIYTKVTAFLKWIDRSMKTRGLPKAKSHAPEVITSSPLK
T1 sequence (P00742 41-179 partner limits assumed): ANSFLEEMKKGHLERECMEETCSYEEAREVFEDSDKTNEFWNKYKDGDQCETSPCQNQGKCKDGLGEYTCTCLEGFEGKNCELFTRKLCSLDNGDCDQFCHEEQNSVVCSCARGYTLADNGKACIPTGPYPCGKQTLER

Consider `O=C(NCCCCCCCCNC(=O)c1cccc(NS(=O)(=O)c2ccc3ccccc3c2)c1)c1cccc(NS(=O)(=O)c2ccc3ccccc3c2)c1` [Example 5, 1,8-di[3-(2-naphthalenylsulfonylamino)benzamido]octane], for which the inhibition (in general, the share of the control response that was lost under treatment) at 6 µM on human α-thrombin was found to be 20%. Further, on Factor Xa [1], half-maximal inhibition (IC50) was put at 2100 nM.
For the molecule `O=C(NCCCN1CCN(CCCNC(=O)c2cccc(NS(=O)(=O)c3ccc4ccccc4c3)c2)CC1)c1cccc(NS(=O)(=O)c2ccc3ccccc3c2)c1` [Example 6, 1,4-di-[3-(2-naphthalenylsulfonylamino)benzamidopropyl]piperazine], the inhibition at 6 µM on human α-thrombin worked out at 0%. In addition, the IC50 – broadly, the point on the concentration scale where inhibition reaches its midpoint – against Factor Xa [1] is 5200 nM.
Regarding “TAP: soft tick derived protein TAP (tick anticoagulant peptide) (YNRLCIKPRDWIDECDSNEGGERAYFRNGKGGCDSFWICPEDHTGADYYSSYRDCFNACI; UniProt P17726 1-60, looked up)”, the “clot lysis and reocclusion” value in test [2] is “accelerated clot lysis and prevented reocclusion”. In the test on smooth muscle cell, the “smooth muscle cell proliferation inhibitory activity” value is given as “smooth muscle cell proliferation inhibitory activity”. Moreover, the “reduction of experimental restenosis” value with experimental restenosis is recorded as “reduce experimental restenosis”.
At human α-thrombin, `O=C(NCc1cccc(CNC(=O)c2cccc(NS(=O)(=O)c3ccc4ccccc4c3)c2)c1)c1cccc(NS(=O)(=O)c2ccc3ccccc3c2)c1` [Example 7, 1,3-di-[3-(2-naphthalenylsulfonylamino)benzamidomethyl]benzene] showed an inhibition at 6 µM of 20%. Also, the IC50 against Factor Xa [1] worked out at 2400 nM.
Consider “ecotin: The peptide ecotin is another selective, reversible, tight-binding inhibitor of factor Xa”, for which the “inhibition of factor Xa” value in the test on factor Xa [3] is given as “selective, reversible, tight-binding inhibitor of factor Xa”.
`O=C(NCCCCCNC(=O)c1cccc(NS(=O)(=O)c2ccc3ccccc3c2)c1)c1cccc(NS(=O)(=O)c2ccc3ccccc3c2)c1` [Example 4, 1,5-di[3-(2-naphthalenylsulfonylamino)benzamido]pentane] registered an inhibition at 6 µM against human α-thrombin of 0%. At Factor Xa [1], this molecule yielded an IC50 of 3000 nM.

B1: antistasin: leech-derived, 119-amino acid protein antistasin (protein, UniProt P15358 18-136, looked up)
Antistasin: QGPFGPGCEEAGCPEGSACNIITDRCTCSGVRCRMHCPHGFQRSRYGCEFCKCRLEPMKATCDISECPEGMMCSRLTNKCDCKIDINCRKTCPNGLKRDKLGCEYCECRPKRKLIPRLS
As to B1, in test [2], the “clot lysis and reocclusion” value was “accelerated clot lysis and prevented reocclusion”. In addition, the “smooth muscle cell proliferation inhibitory activity” value in the test on smooth muscle cell is “smooth muscle cell proliferation inhibitory activity”. Further, the “reduction of experimental restenosis” value in the test on experimental restenosis is listed as “reduce experimental restenosis”.
